What is called EC50 is the concentration that produces a half-maximal response.

This note sets out measurements from ChEMBL document CHEMBL3046236, “The application of comparative molecular field analysis for the design of -anilino substituted-3-phenyl propanoic acids as novel PPAR/ dual ligands” (Med Chem Res, 2012).

In assay [1] the target is T1, Peroxisome proliferator-activated receptor alpha (Homo sapiens, UniProt Q07869).
T1 sequence (Q07869 whole entry): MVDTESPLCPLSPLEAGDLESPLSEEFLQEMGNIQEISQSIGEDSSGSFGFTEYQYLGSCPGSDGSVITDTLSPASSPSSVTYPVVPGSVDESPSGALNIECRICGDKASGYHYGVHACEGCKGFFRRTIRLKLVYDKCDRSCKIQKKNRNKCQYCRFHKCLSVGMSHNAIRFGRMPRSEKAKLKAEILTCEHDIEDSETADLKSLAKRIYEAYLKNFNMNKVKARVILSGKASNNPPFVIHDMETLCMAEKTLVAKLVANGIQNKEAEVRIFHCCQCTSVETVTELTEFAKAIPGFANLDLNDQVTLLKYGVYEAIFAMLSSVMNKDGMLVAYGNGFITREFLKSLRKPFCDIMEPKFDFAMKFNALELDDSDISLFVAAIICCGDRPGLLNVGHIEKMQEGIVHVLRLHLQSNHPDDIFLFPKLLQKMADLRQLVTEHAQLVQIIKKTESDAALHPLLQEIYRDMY
As to the kind of experiment: Transactivation of Homo sapiens (human) PPARalpha assessed as luciferase activity by reporter gene assay. For orientation: In a reporter assay the amount or activity of a reporter protein is the signal.

In assay [2] the target is T2, Peroxisome proliferator-activated receptor gamma (Homo sapiens, UniProt P37231).
T2 sequence (P37231 whole entry): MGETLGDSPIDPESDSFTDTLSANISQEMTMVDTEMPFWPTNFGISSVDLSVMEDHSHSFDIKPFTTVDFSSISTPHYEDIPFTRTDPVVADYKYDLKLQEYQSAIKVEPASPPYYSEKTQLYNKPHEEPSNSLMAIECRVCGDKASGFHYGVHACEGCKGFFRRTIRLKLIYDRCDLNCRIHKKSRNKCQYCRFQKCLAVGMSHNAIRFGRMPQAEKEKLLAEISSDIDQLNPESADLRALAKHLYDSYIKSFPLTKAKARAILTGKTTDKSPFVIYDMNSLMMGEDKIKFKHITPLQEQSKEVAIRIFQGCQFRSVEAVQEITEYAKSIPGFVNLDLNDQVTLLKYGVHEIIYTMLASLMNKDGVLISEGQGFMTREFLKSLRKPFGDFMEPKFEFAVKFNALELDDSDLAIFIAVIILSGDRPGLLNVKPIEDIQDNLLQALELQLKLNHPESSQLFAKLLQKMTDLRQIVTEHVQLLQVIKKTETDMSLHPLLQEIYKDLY
Description: Transactivation of Homo sapiens (human) PPARgamma assessed as luciferase activity by reporter gene assay

Bounds are passed on as bounds.

On to `CC(C)O[C@@H](Cc1ccc(OCc2noc(-c3cc(C(F)(F)F)cc(C(F)(F)F)c3)n2)cc1)C(=O)O`, for which the concentration giving a half-maximal response (EC50) in assay [1] is 3.98 nM; in assay [2], 31.6 nM. As for `CCO[C@@H](Cc1ccc(OC/C=C(/c2ccccc2)c2ccc(-c3ccccc3)cc2)cc1)C(=O)O`, the EC50 in assay [1] was 891 nM.

On to `Cc1sc(-c2ccncc2)nc1CCOc1ccc(C[C@H](Nc2ccccc2C(=O)c2ccccc2)C(=O)O)cc1`, for which the EC50 in assay [1] is above 10000 nM. Take `CCO[C@@H](Cc1ccc(OC/C=C(/c2ccccc2)c2ccc(F)cc2)cc1)C(=O)O`: the concentration for a half-maximal effect (EC50) in assay [1] was 5250 nM; in assay [2] it was 8510 nM. For `CCO[C@@H](Cc1ccc(OC/C=C(\c2ccccc2)c2ccc(Br)cc2)cc1)C(=O)O`, the EC50 in assay [1] was 2190 nM; in assay [2] it was 4270 nM.

In the case of `Cc1oc(C2CCCCC2)nc1CCOc1ccc(C[C@H](Oc2ccccc2)C(=O)O)cc1`, the 50% effective concentration (EC50) in assay [1] and in assay [2] was 1 nM each time. `CC(C)O[C@H](Cc1ccc(OCc2noc(-c3cc(C(F)(F)F)cc(C(F)(F)F)c3)n2)cc1)C(=O)O`: the EC50 in assay [1] is 2510 nM; in assay [2] it was 631 nM. As to `CCO[C@@H](Cc1ccc(OCC=C(c2ccc(C)cc2)c2ccc(C)cc2)cc1)C(=O)O`, the concentration giving a half-maximal response (EC50) in assay [1] was 692 nM.
